We go through 7 compounds from paper PMC4981864, “Novel pH-Sensitive Cyclic Peptides” (Scientific Reports, 2016).

Data set [1] can be described thus: Dual quenching assay (acrylamide / 10-DN). The data set is classed as physicochemical. The conditions noted are these: 7 μM peptide, 2.1 mM POPC; for percentage of fluorescence quenching, Pep-PC+AC pH3 / percentage of fluorescence quenching, Pep-PC+AC pH8: 235 mM acrylamide; for percentage of fluorescence quenching, Pep-PC+AC pH3 / percentage of fluorescence quenching, Pep-PC+10-DN pH3: pH 3; for percentage of fluorescence quenching, Pep-PC+AC pH8 / percentage of fluorescence quenching, Pep-PC+10-DN pH8: pH 8; for percentage of fluorescence quenching, Pep-PC+10-DN pH3 / percentage of fluorescence quenching, Pep-PC+10-DN pH8: 10% of lipids replaced by 10-DN. From the text:
To establish localization of the peptides within a lipid bilayer of membrane, dual quenching assay[28] was employed (Fig. 3 and Table S3). Effective quenching of fluorescence by acrylamide would occur only for tryptophan residues exposed to polar parts of the outer or inner leaflets of the bilayer. At the same time, tryptophan residues located in the middle of a membrane would be effectively quenched by 10-DN. The result of the dual quenching assay allows establishing if tryptophan residues were located in the middle of a membrane or close to the polar headgroups of the bilayer. […] Therefore, we also performed Förster resonance energy transfer (FRET) assay[29] (Fig. 4). First, symmetrically-labelled by NBD dye, POPC liposomes were prepared. Then, membrane-impermeable dithionite was used to chemically modify exposed NBD, which led to the quenching of NBD fluorescence. Thus, NBD dyes located at the outer leaflet of the bilayer were deactivated and excess of dithionite was removed by gel filtration. As a result, asymmetrically-labelled liposomes with active NBD at the inner leaflet were obtained. FRET was monitored from tryptophan residues of the peptides to NBD. Energy transfer might occur only when both fluorophores are in proximity to each other (within 5–15 Å). Thus, when tryptophan residues located at the outer leaflet of the bilayer no significant energy transfer to NBD at the inner leaflet would occur (the distance is about 50–60 Å). […] All other peptides were located at the outer leaflet of the bilayer at pH 8. Drop of pH promoted partitioning of all cyclic peptides into bilayer, which highest FRET for the c[E4W5C] at pH 3.
POPC liposomes without and with 10% of the lipids replaced by 10-doxylnonadecane (10-DN) (Avanti Polar Lipids) were prepared in 10 mM citrate-phosphate buffer pH 8.0. Peptides and POPC liposomes were mixed to generate final concentrations of 7 μM peptide and 2.1 mM POPC without and with 10-DN. […] Quencher, acrylamide (Sigma-Aldrich), was added to the samples of POPC liposomes containing no 10-DN, to have final concentration of 235 mM acrylamide. Concentration of peptides in all samples was kept constant. To observe quenching of tryptophan fluorescence by 10-DN or acrylamide, the tryptophan fluorescence was recorded as described above. The appropriate POPC blanks were measured and subtracted from the measured spectra before analysis. The percentage of quenching was calculated.

Data set [2] can be described thus: Steady-state tryptophan fluorescence and CD with and without POPC liposomes. Format: physicochemical. The conditions noted are these: for maximum position of the fluorescence spectrum λmax, Pep, pH8: peptide in phosphate buffer pH 8, no liposomes; for maximum position of the fluorescence spectrum λmax, Pep, pH8 / maximum position of the fluorescence spectrum λmax, Pep-PC, pH3 / maximum position of the fluorescence spectrum λmax, Pep-PC, pH8: 5 μM peptide, excitation 280 nm, 25 °C; for maximum position of the fluorescence spectrum λmax, Pep-PC, pH3 / S, normalized area under the spectra, Pep-PC, pH3: with POPC liposomes pH 3; for maximum position of the fluorescence spectrum λmax, Pep-PC, pH3 / maximum position of the fluorescence spectrum λmax, Pep-PC, pH8: 1.25 mM lipids; for S, normalized area under the spectra, Pep-PC, pH3 / S, normalized area under the spectra, Pep-PC, pH8: normalized on area for peptide at pH 8 in absence of POPC; for maximum position of the fluorescence spectrum λmax, Pep-PC, pH8 / S, normalized area under the spectra, Pep-PC, pH8: with POPC liposomes pH 8. As for the experimental part:
(§1) Large unilamellar vesicles (LUVs) were prepared by extrusion. POPC, 1-palmitoyl-2-oleoyl-sn-glycero-3-phosphocholine (Avanti Polar Lipids), or a mixture of POPC with 0.5% of 18:1 NBD-PE, 1,2-dioleoyl-sn-glycero-3-phosphoethanolamine-N-7-nitro-2-1,3-benzoxadiazol-4-yl ammonium salt (Avanti Polar Lipids) were dissolved in chloroform, desolvated on a rotary evaporator, and dried under high vacuum for several hours. The phospholipid film was then rehydrated in 10 mM phosphate buffer pH 8.0, vortexed until the lipid bilayer was completely dissolved, and repeatedly (15–21 times) extruded through the membranes with 50 nm pore sizes to obtain LUVs.
Freshly prepared peptides and POPC vesicles were mixed to have 5 μM of a peptide and 1.25 mM of lipids in the final solution. Steady-state fluorescence measurements were carried out on a PC1 spectrofluorometer (ISS, Inc.) under temperature control at 25 °C. Tryptophan fluorescence was excited at 280 nm (there is no Phe or Tyr in the peptides) and recorded with the excitation and emission slits set at 1 nm. The polarizers in the excitation and emission paths were set at the “magic” angle (54.7° from the vertical orientation) and vertically (0°), respectively. Steady state CD measurements were carried out in MOS 450 spectropolarimeter (Bio-Logic, Inc.) with the same concentrations of peptide and lipids used in fluorescence measurements.

Data set [3] is classed as physicochemical. The conditions noted are these: pH 8. The method, then:
as §1
pH-dependent partitioning of the peptides into a lipid bilayer of the membrane was investigated by the shift of the position of the fluorescence spectral maximum for the peptides in the presence POPC liposomes induced by a drop of pH from 8 to 2.5 by the addition of HCl. The peptides were incubated overnight with 50-nm POPC liposomes (final concentration of the peptides and POPC in solution was 5 μM and 1 mM, respectively), and pH decrease was achieved by the addition of aliquots of 4, 2, 1 and 0.1 M HCl. pH was measured by micro-electrode probe (Thermo Electron Corporation, Orion Ross Micro pH electrode). Fluorescence spectra were recorded at each pH value. The spectra were analyzed by the decomposition algorithms using on-line PFAST toolkit[47] (Protein Fluorescence and Structural Toolkit: http://pfast.phys.uri.edu/) to establish the position of the emission maximum. Finally, the positions of the fluorescence spectral maxima (λmax) were plotted versus pH, and the Henderson–Hasselbalch equation was used to fit the data (using Origin 8.5 software): […]
where [drawing 3] and [drawing 4] are the beginning and the end of the transition, respectively, and pKa – is the midpoint of the transition.

Data set [4] concerns HeLa cells. The conditions noted are these: concentrations used in this study, treatment of 2-4 hours; cited from earlier work. As for the experimental part: Symmetric, c[(WE)4WC], and asymmetric, c[E4W5C], cyclic peptides were evaluated for their ability to move polar cargo across the membrane. The experiments on live cells were performed at physiologically relevant pHs, such as pH 7.4 (extracellular pH of normal cells) and pH 6.0 (extracellular pH in the vicinity of cancer cells[12]). As a polar cargo, we used amanitin, which is a cell-impermeable cyclic p ...

Ends that are not written are not given here. Peptide text beside a SMILES is read from it.

Take `CC(C)C[C@@H]1NC(=O)[C@H](CS)NC(=O)[C@H](Cc2c[nH]c3ccccc23)NC(=O)[C@H](CCC(=O)O)NC(=O)[C@H](CC(C)C)NC(=O)[C@H](CCC(=O)O)NC(=O)[C@H](CC(C)C)NC(=O)[C@H](CCC(=O)O)NC(=O)[C@H](CC(C)C)NC(=O)[C@H](CCC(=O)O)NC1=O` [c[(LE)4WC]] (cyclo(CLELELELEW)): in data set [1], the “percentage of fluorescence quenching, Pep-PC+AC pH3” value (“percentage … Pep-PC+AC pH3” below) is 59%; the “percentage of fluorescence quenching, Pep-PC+AC pH8” value (from here on “percentage … Pep-PC+AC pH8”) amounted to 96%; the “percentage of fluorescence quenching, Pep-PC+10-DN pH3” value (shortened to “percentage … Pep-PC+10-DN pH3”) amounted to 17%; the “percentage of fluorescence quenching, Pep-PC+10-DN pH8” value (shortened to “percentage … Pep-PC+10-DN pH8”) was 0%. For the same compound, in data set [2], the “maximum position of the fluorescence spectrum λmax, Pep, pH8” value (shortened to “maximum position … Pep, pH8”) was 348.7±0.3 nm; the “maximum position of the fluorescence spectrum λmax, Pep-PC, pH3” value (“maximum position … pH3” for short) turned out to be 339.6±1.2 nm; the “S, normalized area under the spectra, Pep-PC, pH3” value (shortened to “S, normalized area … pH3”) is 1.1±0.1; the “maximum position of the fluorescence spectrum λmax, Pep-PC, pH8” value (from here on “maximum position … Pep-PC, pH8”) came out at 348.2±0.6 nm. The “S, normalized area under the spectra, Pep-PC, pH8” value (shortened to “S, normalized area … pH8”) in data set [2] is given as 1.1±0.0. In data set [3], the “apparent pK (pKa) of peptide's partitioning into the bilayer” value (from here on “apparent pK (pKa)”) is reported as 4.7.
As to `O=C(O)CC[C@@H]1NC(=O)[C@H](Cc2c[nH]c3ccccc23)NC(=O)[C@H](CS)NC(=O)[C@H](Cc2c[nH]c3ccccc23)NC(=O)[C@H](CCC(=O)O)NC(=O)[C@H](Cc2c[nH]c3ccccc23)NC(=O)[C@H](CCC(=O)O)NC(=O)[C@H](Cc2c[nH]c3ccccc23)NC1=O` [c[(WE)3WC]] (cyclo(CWEWEWEW)), in data set [1], the “percentage … Pep-PC+AC pH3” value came out at 63%; the “percentage … Pep-PC+AC pH8” value worked out at 83%; the “percentage … Pep-PC+10-DN pH3” value is given as 47%; the “percentage … Pep-PC+10-DN pH8” value is on record as 6%. Further, in data set [2], the “maximum position … Pep, pH8” value is given as 351.0±0.2 nm; the “maximum position … pH3” value is recorded as 341.7±0.2 nm; the “S, normalized area … pH3” value worked out at 1.7±0.3; the “maximum position … Pep-PC, pH8” value stood at 349.1±0.7 nm. In data set [2], the “S, normalized area … pH8” value stood at 0.9±0.1. In addition, in data set [3], the “apparent pK (pKa)” value was 6.1.
Consider `O=C(O)CC[C@@H]1NC(=O)[C@H](Cc2c[nH]c3ccccc23)NC(=O)[C@H](CS)NC(=O)[C@H](Cc2c[nH]c3ccccc23)NC(=O)[C@H](CCC(=O)O)NC(=O)[C@H](Cc2c[nH]c3ccccc23)NC(=O)[C@H](CCC(=O)O)NC(=O)[C@H](Cc2c[nH]c3ccccc23)NC(=O)[C@H](CCC(=O)O)NC(=O)[C@H](Cc2c[nH]c3ccccc23)NC1=O` [c[(WE)4WC]] (cyclo(CWEWEWEWEW)), for which, in data set [1], the “percentage … Pep-PC+AC pH3” value turned out to be 50%; the “percentage … Pep-PC+AC pH8” value was 82%; the “percentage … Pep-PC+10-DN pH3” value came to 40%; the “percentage … Pep-PC+10-DN pH8” value is recorded as 11%. Further, in data set [2], the “maximum position … Pep, pH8” value was determined as 350.5±0.2 nm; the “maximum position … pH3” value was 341.1±0.9 nm; the “S, normalized area … pH3” value turned out to be 1.6±0.2; the “maximum position … Pep-PC, pH8” value was 347.5±1.2 nm. In data set [2], the “S, normalized area … pH8” value is 1.1±0.1. Further, the “apparent pK (pKa)” value in data set [3] is 6.4.
Consider `O=C(O)CC[C@@H]1NC(=O)[C@H](Cc2c[nH]c3ccccc23)NC(=O)[C@H](CS)NC(=O)[C@H](Cc2c[nH]c3ccccc23)NC(=O)[C@H](CCC(=O)O)NC(=O)[C@H](Cc2c[nH]c3ccccc23)NC(=O)[C@H](CCC(=O)O)NC(=O)[C@H](Cc2c[nH]c3ccccc23)NC(=O)[C@H](CCC(=O)O)NC(=O)[C@H](Cc2c[nH]c3ccccc23)NC(=O)[C@H](CCC(=O)O)NC(=O)[C@H](Cc2c[nH]c3ccccc23)NC1=O` [c[(WE)5WC]] (cyclo(CWEWEWEWEWEW)), for which, in data set [1], the “percentage … Pep-PC+AC pH3” value is reported as 68%; the “percentage … Pep-PC+AC pH8” value is reported as 78%; the “percentage … Pep-PC+10-DN pH3” value stood at 40%; the “percentage … Pep-PC+10-DN pH8” value was 13%. Further, in data set [2], the “maximum position … Pep, pH8” value was determined as 350.3±0.2 nm; the “maximum position … pH3” value amounted to 341.2±0.4 nm; the “S, normalized area … pH3” value is reported as 2.1±0.3; the “maximum position … Pep-PC, pH8” value turned out to be 346.7±1.2 nm. Further, the “S, normalized area … pH8” value in data set [2] is on record as 1.5±0.3. Also, in data set [3], the “apparent pK (pKa)” value is 6.3.
Take `N=C(N)NCCC[C@@H]1NC(=O)[C@H](CS)NC(=O)[C@H](Cc2c[nH]c3ccccc23)NC(=O)[C@H](Cc2c[nH]c3ccccc23)NC(=O)[C@H](Cc2c[nH]c3ccccc23)NC(=O)[C@H](Cc2c[nH]c3ccccc23)NC(=O)[C@H](Cc2c[nH]c3ccccc23)NC(=O)[C@H](CCCNC(=N)N)NC(=O)[C@H](CCCNC(=N)N)NC(=O)[C@H](CCCNC(=N)N)NC1=O` [c[R4W5C]]: the “pH-dependent interaction with / partitioning into the lipid bilayer of membrane” value in data set [2] (fluorescence and CD, POPC liposomes, pH 8 and pH 3) is given as “does not exhibit pH-dependent changes”.
Consider CWEWEWEWEW [l(CW(EW)4)], for which, in data set [3], the “apparent pK (pKa)” value is given as 5.7.
As to alpha-amanitin, the “cell death by amanitin alone” value in data set [4] is “does not induce cell death”.
